Measured values from ChEMBL document CHEMBL2146461, “Synthesis and antiplasmodial activity of new heteroaryl derivatives of 7-chloro-4-aminoquinoline” (Bioorg Med Chem, 2012).

Legend:
Plasmodium falciparum [1] = experiment: Antiplasmodial activity against chloroquine-sensitive Plasmodium falciparum D10 infected in human red blood cells after 72 hrs by parasite lactate dehydrogenase assay; type: functional, organism-based; conditions: D10, 72 h
Plasmodium falciparum [2] = experiment: Ratio of chloroquine IC50 to compound IC50 for chloroquine-sensitive Plasmodium falciparum D10; type: functional
Plasmodium falciparum [3] = experiment: Antiplasmodial activity against chloroquine-resistant Plasmodium falciparum W2 infected in human red blood cells after 72 hrs by parasite lactate dehydrogenase assay; type: functional, organism-based; conditions: W2, 72 h
Plasmodium falciparum [4] = experiment: Ratio of chloroquine IC50 to compound IC50 for chloroquine-resistant Plasmodium falciparum W2; type: functional
[5] = Resistance index, ratio of IC50 for chloroquine-resistant Plasmodium falciparum W2 to IC50 for chloroquine-sensitive Plasmodium falciparum D10; type: functional
[6] = Cytotoxicity against human HMEC1 cells after 72 hrs by MTT assay; type: cell-based; conditions: HMEC-1, 72 h
[7] = Selectivity index, ratio of IC50 for human HMEC1 cells to IC50 for chloroquine-resistant Plasmodium falciparum W2; type: toxicity, cell-based; conditions: read-out: Ratio IC50
[8] = Lipophilicity, log P of the compound at pH 7.4; type: physicochemical; conditions: buffer
[9] = n-octanol-KCl distribution coefficient, log D of the compound at pH 7.4; type: physicochemical
[10] = Inhibition of beta-hematin formation assessed as ratio of drug to haemin for 50% inhibition by BHIA assay; type: functional
[11] = Dissociation constant, pKa of the compound; type: physicochemical

| Compound | IC50 (Plasmodium falciparum [1]) [nM] | Ratio IC50 (Plasmodium falciparum [2]) | IC50 (Plasmodium falciparum [3]) [nM] | Ratio IC50 (Plasmodium falciparum [4]) | Ratio IC50 [5] | IC50 [6] [nM] | selectivity ratio [7] | logP ([8]; read-out: logP) | logD [9] | IC50 [10] [molar ratio] | pKa [11] | logP [8] |
| --- | --- | --- | --- | --- | --- | --- | --- | --- | --- | --- | --- | --- |
| Clc1ccc2c(NCc3nc(-c4ccc(N5CCCC5)cc4)c[nH]3)ccnc2c1 | 18.2 | 0.77 | 35.3 | 12.22 | 1.9 | 2430 | 69 | 8.87 | 8.53 | – | – | – |
| Clc1ccc2c(Nc3ccc(CN4CCCC4)s3)ccnc2c1 | 2660 | 0.01 | 4220 | 0.04 | 1.6 | – | – | 3.93 | 2.98 | – | – | – |
| Fc1ccc(-c2c[nH]c(CNc3ccnc4cc(Cl)ccc34)n2)cc1 | 52.1 | 0.28 | 82.4 | 5.05 | 1.6 | 9920 | 120 | 5.31 | 4.93 | – | – | – |
| Clc1ccc2c(NCc3ccc(CN4CCCC4)s3)ccnc2c1 | 12.5 | 1.11 | 26.3 | 16.43 | 2.1 | 24200 | 921 | 4.42 | 2.77 | 1.08 | – | – |
| CCN(CC)Cc1cnc(CNc2ccnc3cc(Cl)ccc23)[nH]1 | 191 | 0.07 | 3800 | 0.04 | 19.9 | – | – | – | – | – | – | – |
| Clc1ccc(-c2c[nH]c(CNc3ccnc4cc(Cl)ccc34)n2)cc1 | 25.8 | 0.43 | 60.5 | 4.77 | 2.3 | 7450 | 123 | 5.34 | 5.1 | – | – | – |
| Clc1ccc2c(NCc3nc(-c4ccccc4)c[nH]3)ccnc2c1 | 116 | 0.14 | 85.1 | 1.78 | 0.7 | 13100 | 154 | 4.98 | 4.62 | – | – | – |
| Fc1ccc(-c2nc(CNc3ccnc4cc(Cl)ccc34)[nH]c2CN2CCCC2)cc1 | 25.7 | 0.57 | 197 | 2.11 | 7.7 | – | – | 6.78 | 4.77 | – | – | – |
| CCN(CC)Cc1[nH]c(CNc2ccnc3cc(Cl)ccc23)nc1-c1ccccc1 | 28 | 0.58 | 85.8 | 1.78 | 3.1 | 9140 | 107 | – | – | – | – | – |
| CCN(CC)Cc1ccc(Nc2ccnc3cc(Cl)ccc23)s1 | 1860 | 0.08 | 2580 | 0.06 | 1.4 | – | – | – | – | – | – | – |
| Clc1ccc2c(NCc3nc(-c4ccccc4)c(CN4CCCC4)s3)ccnc2c1 | 19.3 | 0.81 | 60.1 | 4.93 | 3.1 | 30400 | 506 | 6.78 | 6.01 | – | – | – |
| Clc1ccc2c(NCc3nc(-c4ccccc4)cs3)ccnc2c1 | 212 | 0.07 | 396 | 1.09 | 1.9 | – | – | 5.2 | 5.15 | – | 6.45 | – |
| Clc1ccc2c(NCc3nc(-c4ccccc4)c(CN4CCCC4)[nH]3)ccnc2c1 | 22.9 | 0.71 | 91.6 | 1.67 | 4 | 8660 | 95 | 6.35 | 4.22 | – | – | – |
| Clc1ccc2c(NCc3nc(-c4ccccc4)co3)ccnc2c1 | 270 | 0.05 | 513 | 0.84 | 1.9 | – | – | 4.85 | 4.81 | – | 6.36 | – |
| Cc1ccc(-c2nc(CNc3ccnc4cc(Cl)ccc34)[nH]c2CN2CCCC2)cc1 | 7.4 | 1.49 | 69.3 | 4.17 | 9.4 | 3660 | 53 | 6.45 | 4 | – | – | – |
| Clc1ccc2c(NCc3ncc(CN4CCCC4)[nH]3)ccnc2c1 | 399 | 0.04 | 3120 | 0.05 | 7.8 | – | – | 4.78 | 1.42 | – | – | – |
| CCN(CC)CCCC(C)Nc1ccnc2cc(Cl)ccc12 (configuration not stated) [CHLOROQUINE] | – | – | – | – | – | > 38000 | – | – | – | 1.94 | – | – |
| CN(C)c1cccc(-c2c[nH]c(CNc3ccnc4cc(Cl)ccc34)n2)c1 | 32 | 0.46 | 53.5 | 7.78 | 1.7 | 8970 | 168 | 5.86 | 5.48 | – | – | – |
| CN(C)c1ccc(-c2c[nH]c(CNc3ccnc4cc(Cl)ccc34)n2)cc1 | 13.4 | 0.82 | 20.9 | 13.8 | 1.6 | 6670 | 320 | 5.07 | 4.75 | 0.42 | – | – |
| Clc1ccc(-c2nc(CNc3ccnc4cc(Cl)ccc34)[nH]c2CN2CCCC2)cc1 | 5.5 | 2 | 27.2 | 10.62 | 4.9 | 2060 | 76 | 6.96 | 4.63 | – | – | – |
| Cn1c(CNc2ccnc3cc(Cl)ccc23)nc(-c2ccccc2)c1CN1CCCC1 | 11.8 | 1.18 | 26.5 | 16.27 | 2.2 | 28600 | 1080 | – | 7.57 | – | – | 9.18 |
| Cc1ccc(-c2c[nH]c(CNc3ccnc4cc(Cl)ccc34)n2)cc1 | 17.2 | 0.64 | 40.7 | 7.1 | 2.4 | 7770 | 191 | 4.95 | 4.66 | – | – | – |
| Clc1ccc2c(NCc3ncc[nH]3)ccnc2c1 | 152 | 0.11 | 384 | 0.39 | 2.5 | – | – | 2.82 | 2.39 | – | – | – |
| Clc1ccc2c(NCc3nc4ccccc4[nH]3)ccnc2c1 | 70.6 | 0.2 | 256 | 1.68 | 3.6 | 2400 | 9 | 3.78 | 3.56 | – | – | – |
| CCN(CC)Cc1[nH]c(CNc2ccnc3cc(Cl)ccc23)nc1-c1ccc(Cl)cc1 | 8.8 | 1.25 | 27.6 | 10.47 | 3.1 | 2440 | 89 | – | – | – | – | – |
| Cn1cc(-c2ccccc2)nc1CNc1ccnc2cc(Cl)ccc12 | 30 | 0.46 | 70.3 | 6.14 | 2.3 | 17500 | 249 | 4.99 | 4.57 | – | – | – |
